According to patent US7985731B2, “Sugar chain added GLP-1 peptide” (Otsuka Chemical Holdings Co., Ltd., priority 2007, dated 2011):

Legend:
[1] = molecular target: T1, mouse GLP-1 receptor (Mus musculus, UniProt O35659); test: Test Example 6: ability to synthesize cAMP in mouse GLP-1 receptor-expressing CHO-K1 cells; type: cell-based
T1 construct: expressed in transfected cells
T1 sequence (O35659 22-463): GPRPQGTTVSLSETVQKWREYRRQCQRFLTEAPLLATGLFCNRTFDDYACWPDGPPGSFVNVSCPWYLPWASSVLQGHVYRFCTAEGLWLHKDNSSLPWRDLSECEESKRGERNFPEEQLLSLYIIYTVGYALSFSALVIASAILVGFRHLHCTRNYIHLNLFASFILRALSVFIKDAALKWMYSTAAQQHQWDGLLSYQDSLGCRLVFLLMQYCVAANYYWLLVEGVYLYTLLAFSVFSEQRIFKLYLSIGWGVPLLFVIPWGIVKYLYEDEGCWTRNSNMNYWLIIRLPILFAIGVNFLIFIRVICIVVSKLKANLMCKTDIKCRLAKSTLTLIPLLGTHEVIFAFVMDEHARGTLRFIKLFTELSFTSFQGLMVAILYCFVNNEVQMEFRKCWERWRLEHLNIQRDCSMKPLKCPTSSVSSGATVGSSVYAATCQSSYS
Experimental: 1. Construction of Mouse GLP-1 Receptor-Expressing Vector
A mouse GLP1 receptor sense primer (5′-[…]-3′) (SEQ ID NO: 152) and a mouse GLP-1 receptor antisense primer (5′-[…]-3′) (SEQ ID NO: 153) capable of binding to the 5′ and 3′ ends of mouse GLP-1 receptor cDNA were separately synthesized. PCR was performed using Ex Taq polymerase (TaKaRa) with cDNA (Clone ID: 40046534, Open Biosystems) as a template. Specifically, 50 μL in total of reaction solution consisting of 1 μL of template cDNA (10 ng/μL), 4 μL of 2.5 mM dNTPs, 1 μL of primer solution mixtures (each 50 μM), 5 μL of ×10 Ex Taq polymerase Buffer, 0.25 μL of Ex Taq polymerase and 38.75 μL of sterilized water was used and allowed to react by 94° C. for 1 minute; 94° C. for 45 seconds, 55° C. for 1 minute and 72° C. for 2 minutes (35 cycles); and 72° C. for 10 minutes. The PCR reaction product was electrophoresed on 1% agarose gel, and the cDNA fragment was purified using Wizard SV Gel and PCR Clean-up System (Promega) and treated with restriction enzymes (EcoRI and NheI) to obtain mouse GLP-1 receptor cDNA.
To efficiently obtain cells highly expressing a mouse GLP-1 receptor, a pIRES-gfp vector was used as an expression vector. This vector was prepared by inserting, to a vector pEGFP-N1 (Clontech), an IRES gene-containing DNA fragment obtained by the restriction enzyme treatment (Sal I and BamHI) of pIRESpuro2 (Clontech).
The mouse GLP-1 receptor cDNA fragment was inserted to pIRES-gfp to thereby obtain a mouse GLP-1 receptor-expressing vector mGLP-1R/pIRES-gfp. The DNA sequence of the obtained vector was confirmed using ABI3100-Avant (Applied Biosystems).
2. Preparation of Mouse GLP-1 Receptor-Expressing CHO-K1 Cells
CHO-K1 cells (ATCC catalog No. CCL-61) were transfected with the obtained mGLP-1R/pIRES-gfp using FuGENE (registered trademark) (Roche) according to the instruction manual. The transfected CHO-K1 cells were cultured in RPMI1640 medium (Wako Pure Chemical Industries) containing 10% FCS (Hyclone) and penicillin-streptomycin (SIGMA). Drug selection was conducted by the addition of 1.0 mg/ml G418 (Wako Pure Chemical Industries). The drug resistance cells were sorted with a cell sorter (EPICS ALTRA, Beckman Coulter) using a GFP expression level as an index. After the sorting, the limiting dilution method was conducted to obtain cells highly expressing GFP, namely, cells highly expressing a mouse GLP-1 receptor. The obtained cells were used as mouse GLP-1 receptor-expressing CHO-K1 cells in the experiment shown below.
3. Analysis of Agonist Effect of Oligosaccharide Chain Added GLP-1 Peptide (Ability to Synthesize cAMP)
The mouse GLP-1 receptor-expressing CHO-K1 cells prepared in the preceding paragraph 2 were used to evaluate the agonist effect of the oligosaccharide chain added GLP-1 peptide using the ability to synthesize cAMP as an index.
The mouse GLP-1 receptor-expressing CHO-K1 cells were suspended at a concentration of 5×10^5 cells/ml in RPMI1640 medium containing 10% FCS. The cell suspension was seeded at a concentration of 100 μL per well to a flat-bottomed 96-well plate (Falcon) and cultured at 5% CO2 at 37° C. for 16 hours. The culture supernatant was discarded. The oligosaccharide chain added GLP-1 peptide dissolved in Krebs Ringer bicarbonate Buffer containing 2.5 mM glucose was added at a concentration of 100 μL/well and cultured at 37° C. for 30 minutes. The culture supernatant was immediately discarded. The amount of cAMP synthesized in the mouse GLP-1 receptor-expressing CHO-K1 cells was measured using cAMP ELISA Kit (GE Healthcare or Cayman) and used as an index for the agonist effect of the oligosaccharide chain added GLP-1 peptide on mouse GLP-1 receptors.
GLP-1 increases intracellular cAMP concentrations through the binding to its receptor and promotes insulin secretion. Thus, the activity of the oligosaccharide chain added GLP-1 peptide was evaluated using the ability to synthesize cAMP as an index. […]

[2] = system: C57BL/6JJcl mice; test: Test Example 7: Oral Glucose Tolerance Test (OGTT); type: in vivo; settings: for effect of suppressing rise in blood-sugar levels in OGTT: 9 nmol/kg intraperitoneal 30 minutes before glucose 1 mg/g oral
Experimental: After 30 minutes, a glucose solution was orally administered at a dose of 1 mg/g. Blood was collected from the orbits before the glucose administration and 30 minutes, 60 minutes and 120 minutes after the glucose administration. Blood-sugar levels were measured using ACCU-CHEK Aviva (Roche Diagnostics).
After the oral administration of the glucose solution to the mice fasted overnight, blood was collected over time, and blood-sugar levels were measured.
The correlation between the oligosaccharide chain structure and the activity was studied in mouse OGTT.

[3] = system: db/db (BKS.Cg-+Lepr db/+Lepr db/Jcl) mice; test: Test Example 8: effect of lowering blood-sugar levels in diabetes model mice; type: in vivo; settings: 9 nmol/kg intraperitoneal
Experimental: The oligosaccharide chain added GLP-1 peptide prepared in Example 2, 3, 4, 21 or 23 or the GLP-1 prepared in Comparative Example 1 in a PBS solution (9 nmol/10 ml) was intraperitoneally administered at a dose of 10 ml/kg to BKS.Cg−+Lepr^db/+Lepr^db/Jcl mice (10 week old, male). Blood was collected from the orbits before the compound administration and 30 minutes, 60 minutes, 120 minutes, 180 minutes and 300 minutes after the compound administration. Blood-sugar levels were measured using ACCU-CHEK Aviva (Roche Diagnostics).
The db/db (BKS.Cg−+Lepr^db/+Lepr^db/Jcl) mice serving as diabetes model mice have a mutation in a receptor of leptin which is anorexigenic/energy metabolism-accelerating hormone and develops conditions such as obesity or hyperglycemia.
Blood-sugar levels were measured over time, and their effects of lowering blood-sugar levels were compared with that of the GLP-1 without oligosaccharide chain addition of Comparative Example 1.

With `CC[C@H](C)[C@H](NC(=O)[C@H](Cc1ccccc1)NC(=O)[C@H](CCC(=O)O)NC(=O)[C@H](CCCCN)NC(=O)[C@H](C)NC(=O)[C@H](C)NC(=O)[C@H](CCC(N)=O)NC(=O)CNC(=O)[C@H](CCC(=O)O)NC(=O)[C@H](CC(C)C)NC(=O)[C@H](Cc1ccc(O)cc1)NC(=O)[C@H](CO)NC(=O)[C@H](CO)NC(=O)[C@@H](NC(=O)[C@H](CC(=O)O)NC(=O)[C@H](CO)NC(=O)[C@@H](NC(=O)[C@H](Cc1ccccc1)NC(=O)[C@@H](NC(=O)CNC(=O)[C@H](CCC(=O)O)NC(=O)[C@H](C)NC(=O)[C@@H](N)Cc1c[nH]cn1)[C@@H](C)O)[C@@H](C)O)C(C)C)C(=O)N[C@@H](C)C(=O)N[C@@H](Cc1c[nH]c2ccccc12)C(=O)N[C@@H](CC(C)C)C(=O)N[C@H](C(=O)N[C@@H](CSCC(=O)N[C@@H]1O[C@H](CO)[C@@H](O[C@@H]2O[C@H](CO)[C@@H](O[C@@H]3O[C@H](CO[C@H]4O[C@H](CO)[C@@H](O)[C@H](O)[C@@H]4O[C@@H]4O[C@H](CO)[C@@H](O[C@@H]5O[C@H](CO[C@]6(C(=O)O)C[C@H](O)[C@@H](NC(C)=O)[C@H]([C@H](O)[C@H](O)CO)O6)[C@H](O)[C@H](O)[C@H]5O)[C@H](O)[C@H]4NC(C)=O)[C@@H](O)[C@H](O[C@H]4O[C@H](CO)[C@@H](O)[C@H](O)[C@@H]4O[C@@H]4O[C@H](CO)[C@@H](O[C@@H]5O[C@H](CO[C@]6(C(=O)O)C[C@H](O)[C@@H](NC(C)=O)[C@H]([C@H](O)[C@H](O)CO)O6)[C@H](O)[C@H](O)[C@H]5O)[C@H](O)[C@H]4NC(C)=O)[C@@H]3O)[C@H](O)[C@H]2NC(C)=O)[C@H](O)[C@H]1NC(C)=O)C(=O)NCC(=O)N[C@@H](CCCNC(=N)N)C(=O)NCC(=O)O)C(C)C` [Example 23, 34Cys GLP-1-disialo] the “cAMP synthesis activity compared with GLP-1 (in words)” value [1] was “activity equal to or more than that of the GLP-1”, the “efficacy relative to 30Cys GLP-1-disialo and 36Cys GLP-1-disialo at the same dose in OGTT” value ([2]; 0.9 nmol/kg intraperitoneal) was “about ½” and the “effect of suppressing rise in blood-sugar levels in OGTT” value [2] was “strong effect of suppressing rise in blood-sugar levels”. For the same compound, the “dose dependence of activity of suppressing rise in blood-sugar levels in OGTT” value ([2]; doses 0.9 nmol/kg and 0.09 nmol/kg intraperitoneal) was “dose-dependent activity of suppressing rise in blood-sugar levels”, the “effect of lowering blood-sugar levels in db/db mice” value ([3]; 10-week-old male mice) was “strong effect of lowering blood-sugar levels” and the “durability of effect of lowering blood-sugar levels in db/db mice” value ([3]; up to 300 minutes) was “effects of lowering blood-sugar levels were slightly weakened over time”.

With `CC[C@H](C)[C@H](NC(=O)[C@H](Cc1ccccc1)NC(=O)[C@H](CCC(=O)O)NC(=O)[C@H](CCCCN)NC(=O)[C@H](C)NC(=O)[C@H](C)NC(=O)[C@H](CCC(N)=O)NC(=O)CNC(=O)[C@H](CCC(=O)O)NC(=O)[C@H](CC(C)C)NC(=O)[C@H](Cc1ccc(O)cc1)NC(=O)[C@H](CO)NC(=O)[C@H](CO)NC(=O)[C@@H](NC(=O)[C@H](CC(=O)O)NC(=O)[C@H](CO)NC(=O)[C@@H](NC(=O)[C@H](Cc1ccccc1)NC(=O)[C@@H](NC(=O)CNC(=O)[C@H](CCC(=O)O)NC(=O)[C@H](C)NC(=O)[C@@H](N)Cc1c[nH]cn1)[C@@H](C)O)[C@@H](C)O)C(C)C)C(=O)N[C@@H](C)C(=O)N[C@@H](Cc1c[nH]c2ccccc12)C(=O)N[C@@H](CC(C)C)C(=O)N[C@H](C(=O)N[C@@H](CCCCN)C(=O)NCC(=O)N[C@@H](CCCNC(=N)N)C(=O)NCC(=O)N[C@@H](CSCC(=O)N[C@@H]1O[C@H](CO)[C@@H](O[C@@H]2O[C@H](CO)[C@@H](O[C@@H]3O[C@H](CO[C@H]4O[C@H](CO)[C@@H](O)[C@H](O)[C@@H]4O[C@@H]4O[C@H](CO)[C@@H](O[C@@H]5O[C@H](CO[C@]6(C(=O)O)C[C@H](O)[C@@H](NC(C)=O)[C@H]([C@H](O)[C@H](O)CO)O6)[C@H](O)[C@H](O)[C@H]5O)[C@H](O)[C@H]4NC(C)=O)[C@@H](O)[C@H](O[C@H]4O[C@H](CO)[C@@H](O)[C@H](O)[C@@H]4O[C@@H]4O[C@H](CO)[C@@H](O[C@@H]5O[C@H](CO[C@]6(C(=O)O)C[C@H](O)[C@@H](NC(C)=O)[C@H]([C@H](O)[C@H](O)CO)O6)[C@H](O)[C@H](O)[C@H]5O)[C@H](O)[C@H]4NC(C)=O)[C@@H]3O)[C@H](O)[C@H]2NC(C)=O)[C@H](O)[C@H]1NC(C)=O)C(=O)O)C(C)C` [Example 5, 38Cys GLP-1-disialo] the “cAMP synthesis activity compared with GLP-1 (in words)” value [1] was “activity equal to or more than that of the GLP-1” and the “effect of suppressing rise in blood-sugar levels in OGTT” value [2] was “strong effect of suppressing rise in blood-sugar levels”.
